Experiments:
[1] = tested on: oil field isolated anaerobic consortium, mainly SRB; assay: Biocidal efficacy (MBC, complete kill) of THPS, HHT and THPS/HHT against SRB, 40° C., 24 hour; format: cell-based, Sulfate Reducing Bacteria (SRB); details: alone or in THPS/HHT blend, 10^6 to 10^7 CFU/mL
Procedure: Inside an anaerobic chamber (Bactron anaerobic chamber), a deaerated sterile salt solution (3.1183 g of NaCl, 1.3082 mg of NaHCO3, 47.70 mg of KCl, 72.00 mg of CaCl2, 54.49 mg of MgSO4, 172.28 mg of Na2SO4, 43.92 mg of Na2CO3 in 1 L water) was contaminated with an oil field isolated anaerobic consortium, mainly SRB, at final bacterial concentrations of 10^6 to 10^7 CFU/mL. The aliquots of this contaminated water were then treated with THPS and hexahydro-1,3,5-tris(2-hydroxyethyl)-s-triazine (HHT), or the THPS/HHT combination at different active concentration levels. […] Table 1 summarizes the efficacy of each biocide and their blend, and the Synergy Index*^1 of each combination. *^1Synergy Index=Ca/CA+Cb/CB
• Ca: Concentration of biocide A required to achieve a complete bacterial kill when used in combination with Biocide B • CA: Concentration of biocide A required to achieve a complete bacterial kill when used alone • Cb: Concentration of biocide B required to achieve a complete bacterial kill when used in combination with Biocide A • CB: Concentration of biocide B required to achieve a complete bacterial kill when used alone A Synergy Index less than 1 indicates synergy.

oilfield SRB consortium = assay: Biocidal efficacy of THPS/HHT against anaerobic bacteria in a high temperature and sulfide-rich environment; format: cell-based, Sulfate Reducing Bacteria (SRB); details: alone or in THPS/HHT blend, 80° C., 7 days, daily challenge of SRB and 10 ppm sulfide
Procedure: Inside an anaerobic chamber (BACTRON IV), biocides solutions were challenged with 10^4 to 10^5 CFU/mL of an oilfield SRB consortium and 10 ppm sulfide ion (added in the form of sodium sulfide). The biocide solutions were then incubated at 80° C. under anaerobic condition for 7 days, with daily challenge of the SRB consortium (10^4 to 10^5 CFU/mL) and sulfide ion (10 ppm). The biocidal efficacy was determined by selecting the lowest testing biocide dosage required for 99.999% or complete bacterial kill after both 2 hours and 7 days of heat, SRB and sulfide exposure. Synergy Index was then calculated. Table 2 summarizes the efficacy of each biocide and their blend, and the Synergy Index of each combination.
(§1) A Synergy Index less than 1 indicates synergy.

[2] = tested on: oil field isolated anaerobic SRB consortium; assay: Biocidal efficacy of THPS, DXN and THPS/DXN against SRB (99.99% reduction in 24 hours); format: cell-based, Sulfate Reducing Bacteria (SRB); details: alone or in THPS/DXN blend, 40° C., 10^6 to 10^7 CFU/mL
Procedure: Inside an anaerobic chamber (Bactron III), a deaerated sterile salt solution (3.1183 g of NaCl, 1.3082 mg of NaHCO3, 47.70 mg of KCl, 72.00 mg of CaCl2, 54.49 mg of MgSO4, 172.28 mg of Na2SO4, 43.92 mg of Na2CO3 in 1 L water) was contaminated with an oil field isolated anaerobic SRB consortium at final bacterial concentrations of 10^6 to 10^7 CFU/mL. The aliquots of this contaminated water were then treated with THPS, DXN, or the THPS/DXN combinations at different active concentration levels. After the mixtures were incubated at 40° C. for 24 hour, the viable bacterial number were enumerated using a serial dilution method and the biocidal efficacy was determined by the biocide dosage required for 99.99% bacterial reduction in 24 hours. Synergy Index was then calculated. Table 3 summarizes the efficacy of each biocide and their blends, and the Synergy Index of each combination.
as §1

[3] = tested on: oil field isolated SRB consortium; assay: Biocidal efficacy (MBC, complete kill) of THPS, NaOPP and THPS/NaOPP against SRB; format: cell-based, Sulfate Reducing Bacteria (SRB); details: alone or in THPS/NaOPP blend, 40° C., 24 hours, 10^6 to 10^7 CFU/mL
Procedure: Inside an anaerobic chamber (Bactron anaerobic chamber), a deaerated sterile salt solution (3.1183 g of NaCl, 1.3082 mg of NaHCO3, 47.70 mg of KCl, 72.00 mg of CaCl2, 54.49 mg of MgSO4, 172.28 mg of Na2SO4, 43.92 mg of Na2CO3 in 1 L water) was contaminated with an oil field isolated SRB consortium, at final bacterial concentrations of 10^6 to 10^7 CFU/mL. The aliquots of this contaminated water were then treated with THPS, NaOPP, or the THPS/NaOPP combinations at different active concentration levels. After the mixtures were incubated at 40° C. for 24 hours, the viable bacteria in the aliquots were detected in culture medium. The biocidal efficacy was determined by minimum tested biocide concentration for a complete bacterial kill in the aliquots (MBC). Table 4 summarizes the efficacy of each biocide and their blends, and the Synergy Index of each combination.

[4] = tested on: oil field isolated anaerobic consortium, mainly SRB; assay: Biocidal efficacy of THPS, NaOPP and THPS/NaOPP against anaerobic bacteria (99.999% reduction); format: cell-based, Sulfate Reducing Bacteria (SRB); details: alone or in THPS/NaOPP blend, 40° C., 24 hour, 10^7 CFU/mL
Procedure: Inside an anaerobic chamber (Bactron anaerobic chamber), a deaerated sterile salt solution (3.1183 g of NaCl, 1.3082 mg of NaHCO3, 47.70 mg of KCl, 72.00 mg of CaCl2, 54.49 mg of MgSO4, 172.28 mg of Na2SO4, 43.92 mg of Na2CO3 in 1 L water) was contaminated with an oil field isolated anaerobic consortium, mainly SRB, at final bacterial concentrations of 10^7 CFU/mL. […] After the mixtures were incubated at 40° C. for 24 hour, the viable bacteria were enumerated using serial dilution method. The biocidal efficacy was determined by minimum tested biocide concentration for 99.999% bacterial reduction in the aliquots.

[5] = tested on: Psedomonas aeruginosa ATCC 10145 and Staphylococcus aureus ATCC 6538; assay: Biocidal efficacy of THPS, NaOPP and THPS/NaOPP against aerobic bacteria (99.999% reduction); format: cell-based; details: alone or in THPS/NaOPP blend, PBS buffer (pH7), 37° C., 24 hour
Procedure: A PBS buffer (pH7) was contaminated with Psedomonas aeruginosa ATCC 10145 and Staphylococcus aureus ATCC 6538 at final bacterial concentration of −10^6 CFU/ml. […] After the mixtures were incubated at 37° C. for 24 hour, the viable bacteria were enumerated using serial dilution method. The biocidal efficacy was determined by minimum tested biocide concentration for 99.999% bacterial reduction in the aliquots.

tetrakis(hydroxymethyl)phosphonium sulfate [THPS]
Average MBC THPS ([1]; THPS concentration for complete bacteria kill): 6.1 active ppm | Dosage required for 99.999% or complete bacterial kill of both 2 h and 7 day heat, SRB, and sulfide exposure, THPS (oilfield SRB consortium; THPS): 88.9 active ppm | Dosage required for 99.99% bacterial reduction, THPS ([2]; THPS): 5.5 active ppm | Average MBC THPS ([3]; THPS concentration for complete bacterial kill): 7.9 active ppm | Concentration required for 99.999% bacterial reduction, THPS ([4]; THPS): 11.9 ppm active | Concentration required for 99.999% bacterial reduction, THPS ([5]; THPS): 26.7 ppm active

OCCN1CN(CCO)CN(CCO)C1 [HHT, hexahydro-1,3,5-tris(2-hydroxyethyl)-s-triazine]
Average MBC HHT ([1]; HHT concentration for complete bacteria kill): 79.0 active ppm | Dosage required for 99.999% or complete bacterial kill of both 2 h and 7 day heat, SRB, and sulfide exposure, HHT (oilfield SRB consortium; HHT): 133.3 active ppm

[Na+].[O-]c1ccccc1-c1ccccc1 [NaOPP, sodium o-phenylphenylate]
Average MBC NaOPP ([3]; NaOPP concentration for complete bacterial kill): 333.3 active ppm | Concentration required for 99.999% bacterial reduction, NaOPP ([4]; NaOPP): 303.8 ppm active | Concentration required for 99.999% bacterial reduction, NaOPP ([5]; NaOPP): 202.5 ppm active

CC(=O)OC1CC(C)OC(C)O1 (stereo not drawn) [DXN, 2,6-dimethyl-1,3-dioxan-4-yl acetate]
Dosage required for 99.99% bacterial reduction, DXN ([2]; DXN): 330.9 active ppm

From US9290710B2, “Synergistic antimicrobial composition” (Dow Global Technologies LLC, priority 2009, dated 2016)
